According to patent US8541476B2, “Compounds for treatment of malignant tumors” (The Trustees of the University of Pennsylvania, priority 2007, dated 2013):

Assays:
[1] = tested on: U251 glioma cells; assay: Clonogenic survival assay, U251 cells; type: cell-based, human
Procedure: Clonogenic survival assays were performed as described by Koumenis, et al., 2002, (Mol. Cell Biol. 22:7405-16), which reference is incorporated herein in its entirety. U251, HT-29, or A549 cells were plated at different densities in triplicate, treated with NS-123 or DMSO (alone) and irradiated 4, 8, or 12 hours later with a range of doses using ^137Cs γ-rays at a dose rate of ˜4 Gy/minute (min). One hour after irradiation, the medium was replaced with fresh medium without NS-123 or DMSO. The cells were fixed 7-14 days after IR and stained with crystal violet. Colonies greater than 50 cells were then counted and normalized against the non-irradiated controls for each treatment. […] NHA cells were plated in 24-well plates in quadruplicate at equal density, treated with equal volumes of NS-123 or DMSO (alone) and irradiated as described above. One hour after irradiation, the medium was replaced with fresh ABM. Five days later, the MTS assay was used to evaluate cell survival as above.
The effects of μM doses of NS-123 on clonogenic survival of U251 cells were first determined without ionizing radiation (IR). […] Treatment with a 5 μM dose for 12 hours caused a modest (30%), but statistically significant decrease in survival.
Next, the dose-dependent radiosensitizing effects of NS-123 (2.5 μM and 5.0 μM concentration) in U251 cells was determined (FIG. 4A). […] Therefore, NS-123 can act as a true radiosensitizer at low μM concentrations. Corresponding Dose Enhancement Ratios (DER) at 0.1 survival were: 1.3 (2.5 μM NS-123) and 2.0 (5.0 μM NS-123). The time-dependent radiosensitizing effects of 5.0 μM NS-123 in U251 cells was then investigated. […] Corresponding DER at 0.1 survival were: 1.2 (4 hour preincubation with NS-123), 1.4 (8 hour) and 1.9 (12 hour).

[2] = tested on: HT-29 colorectal cancer cells; assay: Clonogenic survival assay, HT-29 cells; type: cell-based, human
Procedure: Clonogenic survival assays were performed.
In both cases, cells were pretreated with the compounds or DMSO vehicle control for 4 hours prior to treatment with ionizing radiation at the indicated doses.

[3] = tested on: U251 cells transplanted into ZF embryos; assay: U251 xenograft ZF model (U251-RFP fluorescence); type: in vivo, Danio rerio
Procedure: ZF were raised in accordance with previously established protocols (McAleer, et al., 2005, J. Radiat. Oncol. Biol. Phys. 61:10-3) at the University of Pennsylvania School of Medicine. Embryos were maintained at 30° C. after transplantation procedures. The age of embryos is indicated as the hours post-fertilization (hpf) and days post-fertilization (dpf) for all experimental data shown. Embryos were either irradiated with 10 Gy or sham-irradiation as previously described (McAleer, et al., 2005, J. Radiat. Oncol. Biol. Phys. 61:10-3) immediately after photography at 24 hpf. Selected embryos were incubated with NS-123 at a concentration of 30 μM for 14 hours before either irradiation or sham-irradiation.
U251 cells were stably transfected with a RFP construct (pDsRed2-C 1; Clontech, Palo Alto, Calif.). Using a Nanoject II microinjector (Drummond Scientific, Broomall, Pa.) 1-100 cells were transplanted into each ZF embryo still in the chorion, from the high stage of their development (approximately 3.5 hpf) to the oblong-sphere stage (approximately 4.5 hpf). The transplantation site was localized either to the blastodisc approximately halfway between the margin and the animal pole or the center of the embryonic yolk sac. Morphological analysis was performed as previously described (Geiger, et al., 2006, Cancer Res. 66:8172-81). Transplanted embryos were examined under a 100× PlanNeofluor objective mounted on a Nikon TE-200 epifluorescence microscope. Images of embryos bearing RFP-positive cells were captured with a Hammamatsu CCD camera controlled with IP LabSpectrum v2.0.1 software (Scanalytics, Inc., Rockville, Md.). Image analysis and pseudocoloring was performed with Kodak Molecular Imaging software v. 4.0.5 (Kodak, Rochester, N.Y.). […]
Human cancer cells can be transplanted into ZF embryos through microinjection (Lee et al., 2005, Dev. Dyn. […]:1560-1570; Haldi et al., 2006, Angiogenesis 9:139-151; Mizgireuv et al., 2006, Cancer Res. 66:3120-3125). […] The embryos were subsequently examined for fluorescence on sequential days following irradiation.

[4] = NS-123 toxicity evaluation in nu/nu mice; type: in vivo
Procedure: Female nu/nu (nude) mice (6-8 weeks old; Charles River, Wilmington, Mass.) were maintained at the WFUSM animal facility under conditions approved by the Animal Care and Use Committee. NS-123 in DMSO was mixed with 30% propylene glycol (DMSO concentration<1%) and administered via an i.p. injection at a dose of 50 mg/kg to three mice on three consecutive days. The mice were monitored over 30 days for signs of drug-related toxicity, lethality, and weight loss. Mice were euthanized by CO2 asphyxiation and necropsy was performed by a veterinary pathologist. The heart, lung, liver, spleen, kidney, brain, salivary gland, gastrointestinal tract, ovary, uterus, adrenal gland, and thyroid gland were preserved in 10% neutral buffered formalin for at least 48 hours. The tissues were embedded in paraffin, processed routinely for histology, cut at 4-6 microns, stained with hematoxylin and eosin and examined by light microscopy.
To test this hypothesis, 50 mg/kg (i.p.) was administered to nude mice for 3 consecutive days. Clinical signs of drug toxicity and lethality were not observed over the following 30 days.

Question: With `CCC(=O)c1ccc(Br)c([N+](=O)[O-])c1` [NS-123, 4′-bromo-3′-nitropropiophenone] as the molecule, how does the “clonogenic survival without IR” value ([1]; U251, 2.5 μM for 12 hours, no IR) read?
Answer: Its value is “did not cause any significant decrease in survival”.

Question: What about the “Dose Enhancement Ratio (DER) at 0.1 survival” value (shortened to “Dose Enhancement Ratio (DER)”) ([1]; U251, 2.5 μM, 12 hours before IR) of the same molecule?
Answer: The value was 1.3.

Question: What about the radiosensitization ([1]; U251, 2.5 μM, IR dose of 2 Gy) of the same molecule?
Answer: The radiosensitization was “Radiosensitization was evident”.

Question: What about the “decrease in clonogenic survival without IR” value ([1]; U251, 5 μM for 12 hours, no IR) of the same molecule?
Answer: Its value is 30%.

Question: And the “Dose Enhancement Ratio (DER)” value ([1]; U251, 5.0 μM, 4 hour preincubation)?
Answer: The value was 1.2.

Question: And the “Dose Enhancement Ratio (DER)” value ([1]; U251, 5.0 μM, 8 hour preincubation)?
Answer: Its value is 1.4.

Question: And the “Dose Enhancement Ratio (DER)” value ([1]; U251, 5.0 μM, 12 hour preincubation (time-response, FIG. 4B))?
Answer: Its value is 1.9.

Question: What about the “Dose Enhancement Ratio (DER)” value ([1]; U251, 5.0 μM, 12 hours before IR (dose-response, FIG. 4A)) of the same molecule?
Answer: The value was 2.0.

Question: And the “loss of viability without IR, time-response” value ([1]; U251, 5 μM, various times, no IR)?
Answer: Its value is “did not induce any significant loss of viability unless it was administered for 12 hours”.

Question: What about the “radiosensitization, high-density plated cells” value ([1]; U251 plated at high density, 30 μM 4 hour versus 5 μM 12 hour on low-density cells (data not shown)) of the same molecule?
Answer: Its value is “comparable radiosensitization”.

Question: What about the “DER at 0.5 survival” value ([2]; HT-29, 5 μM for 12 hours prior to IR) of the same molecule?
Answer: The value was 3.0.

Question: What about the “DER at 0.1 survival” value ([2]; HT-29, pretreatment with NS-123) of the same molecule?
Answer: The value was 3.0.

Question: And the “surviving U251 cells, irradiated in the presence of drug” value ([3]; NS-123 + 10 Gy IR, 5 dpf)?
Answer: The value was “markedly fewer cells”.

Question: What about the “relative fluorescence versus irradiated-only control” value ([3]; NS-123 + IR, 10 embryos/condition/experiment) of the same molecule?
Answer: Its value is “faster decrease in luminescence”.

Question: And the “size of U251 xenografts, drug alone” value ([3]; NS-123 alone, 3 or 5 dpf)?
Answer: Its value is “did not have any significant effect on the size”.

Question: What about the “gross and histopathological examination” value ([4]; female, nu/nu (nude), mouse, in vivo, ip, 50 mg/kg) of the same molecule?
Answer: The value was “did not reveal any evidence suggestive of NS-123 associated toxicity”.

Question: And the “clinical signs of drug toxicity and lethality” value ([4]; nude mice, 50 mg/kg i.p. 3 consecutive days, 30 days observation)?
Answer: The value was “not observed”.
